Assay [1] has as its system NMDA receptor. In words: NMDA-induced current in cultured hippocampal neurons, whole-cell recording. It is filed as cell-based, rat. Particulars: for IC50: Table 2. How it is done:
Whole-cell recordings of NMDA-induced currents in cultured rat hippocampal neurons were carried out as described previously (Subramaniam, S., et al. Neurosci. Lett. 147: 213-216 (1992)). Hippocampal neurons grown in primary culture from 19-day-old Sprague-Dawley rat embryos were used 7-14 days after plating. The extracellular recording solution consisted of (in mM): 140 NaCl, 5 KCl, 0.1 CaCl2, and 10 HEPES (osmolality, 315-325 mOsm; pH, 7.4). Tetrodotoxin (1 μM) and strychnine (1 μM) were added to block Na+channel currents and glycine-activated Cl^- currents, respectively. Patch pipettes (2-5 M.OMEGA.) were prepared from filament-containing thin wall glass capillary tubes and filled with an intracellular solution that consisted of (in mM): 145 CsCl, 2 MgCl2, 5 HEPES, 0.1 CaCl2, and 1 EGTA (osmolality, 310 mOsm; pH, 7.4). Drugs were dissolved in recording solution and applied via a rapid gravity-fed perfusion system. Flow of the drug solutions was regulated by a microvalve operated by a programmable controller.
(§1) Inhibition curves were fit to the two parameter logistic equation for the best-fit estimates of the IC50 using nonlinear least squares curve fitting methods as previously described (Rothman et al. (1993), supra); Jones, S. M. and Rogawski, M. A. Mol. Neuropharmacol. 2: 303-310 (1992)).

In the next assay the target is T1, NE transporter (Rattus norvegicus, UniProt Q63380).
T1 construct: from tissue; host or cells: brain membranes prepared by a cited method
T1 sequence (Q63380 1-617): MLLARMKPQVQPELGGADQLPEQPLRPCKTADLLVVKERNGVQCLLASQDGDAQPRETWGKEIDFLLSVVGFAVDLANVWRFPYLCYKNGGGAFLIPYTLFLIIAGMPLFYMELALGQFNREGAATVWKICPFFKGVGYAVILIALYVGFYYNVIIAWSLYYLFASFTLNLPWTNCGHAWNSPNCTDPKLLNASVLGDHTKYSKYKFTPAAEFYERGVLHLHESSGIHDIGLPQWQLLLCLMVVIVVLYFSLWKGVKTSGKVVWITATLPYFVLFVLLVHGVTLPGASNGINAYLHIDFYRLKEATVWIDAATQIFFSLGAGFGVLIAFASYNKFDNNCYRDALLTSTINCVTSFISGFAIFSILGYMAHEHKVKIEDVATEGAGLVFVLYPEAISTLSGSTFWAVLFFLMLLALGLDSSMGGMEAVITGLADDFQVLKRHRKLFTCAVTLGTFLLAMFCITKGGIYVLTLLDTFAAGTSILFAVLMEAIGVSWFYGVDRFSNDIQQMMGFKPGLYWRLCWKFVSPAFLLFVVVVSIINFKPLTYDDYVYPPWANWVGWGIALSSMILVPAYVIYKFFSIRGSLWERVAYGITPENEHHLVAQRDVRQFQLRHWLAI
Nature of the assay: [^3 H]Nisoxetine binding to NE transporter. How it is done:
Membranes for the [^3 H]nisoxetine assay were prepared as described (Rothman, R. B., et al. Synapse 14: 34-39 (1993)).
The [^3 H]nisoxetine assay for the norepinephrine transporter (NE) was carried out as described (Rothman, et al. (1993), supra; Tejani-Butt, S. M., et al. Eur. J. Pharmacol. 191:239-243 (1990)). DA transporters were labeled with [^3 H)CFT with minor modifications of published protocols (Madras, B. K., et al. Mol. Pharmacol. 36: 518-524 (1989)). Briefly, 12×75 mm polystyrene test tubes were prefilled with 100 μl of drug, 100 μl of radiolabeled (1 nM final concentration), 50 μl of buffer. Drugs were dissolved in BB containing 1 mg/ml bovine serum albumin (BB/BSA). Radioligands were made to a final concentration in a protease inhibitor cocktail containing 1 mg/ml BSA {BB containing chymostatin (25 μg/ml), leupeptin (25 μg/ml), EDTA (100 μM), and EGTA (100 μM)}. The assay was initiated by the addition of 750 μl of membranes, prepared as described above. Brandel cell harvesters were used to filter the samples over Whatman GF/B filters, which were presoaked in wash buffer (ice-cold 10 mM TRIS-HCL, pH 7.4 containing 150 mM NaCl) containing 2% polyethylenimine. In this procedure, samples were filtered and then washed with two 4 ml aliquots of ice-cold wash buffer. Nonspecific binding was defined using 10 μM (final concentration) GBR12909. All subsequent steps were identical to those described above.
as §1
Synaptosomal uptake and ligand binding assays were conducted as described
Preliminary experiments were conducted to determine the doserange
The data of two experiments were
pooled, and fit to the two parameter logistic equation for the bestfit

A further assay relates to PCP site 2. It is filed as binding, guinea pig. How it is done: Large batches of frozen membranes were prepared with minor modifications of published procedures (Rothman, et al. (1989), supra). Twenty to thirty frozen guinea pig brains with cerebellum were thawed for 15 minutes and homogenized with a Polytron in ice-cold 5 mM Tris-HCl, pH 8.0 (10 ml/brain). The homogenate was centrifuged at 37,000×g for 10 minutes, and the pellet was washed by resuspension in the same volume of buffer followed by recentrifugation. The pellets were resuspended in an equal volume of 5 mM Tris-HCl, pH 8.0, and the concentration was adjusted to 50 mM by the addition of 1M Tris-HCl, pH 8.0. The homogenate was centrifuged for 10 min at 37,000×g. The pellets were then washed three times by resuspension and centrifugation using 50 mM Tris-HCl, pH 8.0. The final pellets were resuspended in the Tris-HCl buffer (0.5 ml/brain), pooled and 1 ml aliquots were distributed to microfuge tubes, which were stored at -70° for assay.
The [^3 H]TCP binding assay for PCP site 2 was conducted with minor modifications of published protocols (Rothman, et al. (1989), supra). Briefly, 12×75 mm polystyrene test tubes were prefilled with 100 μl of [^3 H]TCP (2 nM final concentration) in a protease inhibitor cocktail (PIC) containing 5000 nM (+) -MK801, 100 μl of distilled H2 O or drug (in distilled H2 0), 50 μl of buffer (5 mM Tris-HCL, pH 8.0), and 750 μl of membrane (0.5-1.0 mg/ml protein, in 5 mM Tris-HCl, pH 8.0). […] The protease inhibitor cocktail was composed of 25 μg/ml leupeptin, 25 μg/ml chymostatin, 0.1 mM EDTA, and 0.1 mM ethylene glycol-bis-(beta-aminoethyl-ether)-N,N,N',N'-tetraacetic acid (EGTA). The incubation time was 18-24 hours at 4° C. (steady state) in a final volume of 1 ml. Triplicate samples were filtered with an MR24 Brandel Cell Harvester and washed with two 5 ml aliquots of ice cold buffer. Whatman GF/B filters were presoaked in buffer containing 2% polyethylenimine. The tritium retained on the filters was measured using a Taurus scintillation counter at 44% efficiency after an overnight extraction into ICN Cytoscint cocktail. Non specific binding was determined using 10 μM of TCP. Protein was determine using the method of Lowry, et al., supra.
as §1
^a The binding assays for PCP (site 2) and PCP (site 1) were conducte
as previously reported (Rothman, R. B., et al., In: Multiple Sigma and PC
Receptor Ligands: Mechanisms for Neuromodulation and Protection 307-330
(Domino, E. F. and Kamenka, J. M., eds., 1992) using [^3 H]TCP in the
presence of (+)MK801 for site 2 and [^3 HMK801 for site 1 except that
the [^3 H]TCP assays were terminated after 18-24 hours of incubation

The subject of assay [2] is extracellular dopamine in the nucleus accumbens. Particulars: literature; cited from earlier work.
In a further assay the test system is DA transporter. Particulars: Kuhar et al. 1990; cited from earlier work.
For assay [3], the target named is NMDA receptor. Particulars: Table 2; literature values (footnotes 1 and 2); read-out: NMDA Induced Current IC50; cited from earlier work.
Where [4] appears, read: Table 2, nM ±, read-out: [^3 H]Nisoxetine Binding IC50.
Setting [5] is: Table 1, [^3 H]TCP in presence of (+)MK801, 18-24 hours at 4° C.

Structures are written as SMILES. Entries after “also recorded” stand apart in the source; their conditions may differ. Where two headings read alike, the source gives them in different places.

The term IC50 denotes the concentration needed to halve the response being measured. Regarding `CN1[C@H](Cc2ccccc2)C[C@H]2Cc3ccccc3[C@H]21` (relative stereo) [RTI-4793-14, (2RS, 3aSR, 8aRS)-1,2,3a,8,8a-Hexahydro-2-benzyl-1-methyl-indeno[1,2-b]pyrrole], the “inhibition of NMDA-induced current responses in words” value in the assay on NMDA receptor [1] is “low potency; also recorded: very low potency inhibitor”. The IC50 is 768 µM in the assay with NMDA receptor [1]; 609 ± 48 nM on NE transporter (setting [4]); 37.9 nM in the assay on PCP site 2 (setting [5]); 37.9 ± 5.7 nM with PCP site 2 (Table 2, nM ± SD); 37.9 ± 5.7 nM in the assay with PCP site 2 (Table 3, guinea pig membranes). On NE transporter, the “[^3 H]nisoxetine binding / NE transporter affinity in words” value was “moderate potency”. The “affinity/selectivity for PCP site 2 in words” value is “high affinity and selectivity; also recorded: highest affinity for PCP site 2 of any of the drugs tested” with PCP site 2; “potent and selective ligand for site 2” with PCP site 2 (listed as 3b).
`C[C@]12N[C@H](Cc3ccccc31)c1ccccc12` [(+)-MK801]: the “[^3 H]nisoxetine binding / NE transporter affinity in words” value on NE transporter was “negligible affinity”. The IC50 was 6580 ± 860 nM at NE transporter (setting [4]); 15900 nM in the assay on PCP site 2 (setting [5]); above 10000 nM with PCP site 2 (Table 2, nM ± SD).
Regarding `CNC1CC(c2ccc(Cl)c(Cl)c2)c2ccccc21` (centres unmarked) [Indatraline], in the assay on NMDA receptor [1], the “inhibition of NMDA-induced current responses in words” value was “very low potency”. For the same compound, the IC50 in the assay with NMDA receptor [1] was found to be 95 µM; in the assay on PCP site 2, 2500 nM; with PCP site 2 (Table 2, nM ± SD), 2530 ± 485 nM. Moreover, the “effect on extracellular DA levels” value in assay [2] is reported as “increase extracellular DA levels”.
As for `c1ccc(C2(N3CCCCC3)CCCCC2)cc1` [PCP, phencyclidine], the “affinity at the DA transporter labeled with [^3 H]mazindol” value with DA transporter is on record as “low affinity”. For the same compound, the IC50 at NMDA receptor [3] is 2 µM; on NE transporter, 16630 ± 98 nM; with PCP site 2 (setting [5]) it was 92.4 ± 7 nM; in the assay with PCP site 2 (Table 2, nM ± SD), 92.4 ± 7 nM. The “[^3 H]nisoxetine binding / NE transporter affinity in words” value at NE transporter is listed as “very low affinity”. The “affinity/selectivity for PCP site 2 in words” value with PCP site 2 is “approximately the same potency at both sites; also recorded: moderate and about equal affinity for PCP site 1 and PCP site 2”. In addition, the “effect on extracellular DA levels” value in assay [2] is on record as “increase extracellular DA levels”.

Source of the values: patent US5747503A, “Selective inhibitors of biogenic amine transporters” (priority 1996, dated 1998).
